The results in this text go back to patent publication US7520897B2, “Medical devices having antimicrobial properties” (Helix Medical, LLC, priority 2001, dated 2009).

Series [1] can be described thus: Acute Oral Toxicity (7 day observation in the mouse). Format: in vivo.
Series [2] can be described thus: Cytotoxicity (MEM Elution) of organic antimicrobial valve material. The series is classed as cell-based.

Consider `CCCCOC(=O)c1ccc(O)cc1` [Butyl Paraben, butyl p-hydroxy Benzoate], for which, in series [1], the “Acute Oral Toxicity (7 day observation in the mouse)” value is on record as “Nontoxic”. The “Cytotoxicity (MEM Elution) on the device with valve material” value in series [2] was “Nontoxic”.
Regarding `Oc1cc(Cl)ccc1Oc1ccc(Cl)cc1Cl` [Triclosan, 2,4,4′-trichloro-2′-hydroxydiphenyl ether], the “Acute Oral Toxicity (7 day observation in the mouse)” value in series [1] is “Nontoxic”. Also, the “Cytotoxicity (MEM Elution) on the device with valve material” value in series [2] is recorded as “Nontoxic”. In addition, in series [2] (valve material alone), the “Cytotoxicity (MEM Elution) on the valve material alone” value is reported as “Toxic”.
